Laboratory results as given in patent publication US9469611B2, “Use of dihydroimidazolones for the treatment of dogs” (BOEHRINGER INGELHEIM VETMEDICA GMBH, priority 2002, dated 2016).
Several values for one entry are separate records, joined by “and”; a condition that tells them apart may be missing. Identical values can stand only once. Marks after values point to notes of the source that are not given here.

What was measured:
[1] = cited from earlier work
[2] = serum concentrations of phenobarbital and bromide
[3] = test system: dogs with chronic idiopathic epilepsy; assay: add-on therapy in dogs with chronic idiopathic epilepsy not responding to phenobarbital or primidone; assay type: in vivo, dog
[4] = test system: dogs with newly diagnosed idiopathic epilepsy; assay: monotherapy in dogs with newly diagnosed idiopathic epilepsy (AWD 131-138 pilot study; retrospective phenobarbital, primidone); conditions: for duration of the ictus before treatment, median / duration of the ictus before treatment, time range / duration of the ictus during treatment, median / duration of the ictus during treatment, time range: grand mal seizures; for duration of the ictus before treatment, median / duration of the ictus before treatment, time range / Seizure frequency before treatment, all dogs / Seizure frequency before treatment, without nonresponders: baseline before monotherapy; for % reduction of seizures in responders: mean ± SEM; for Seizure frequency before treatment, all dogs / Seizure frequency before treatment, without nonresponders / Seizure frequency during treatment, all dogs / Seizure frequency during treatment, without nonresponders: median group value; for Seizure frequency during treatment, all dogs / Seizure frequency during treatment, without nonresponders: asterisk = P<0.05 vs before; for shortening of the postictal phase, mean: in the dogs with shortening; for dogs with unchanged or increased seizure severity: owners record
[5] = potassium bromide 40-60 mg/kg p.o. daily, add-on
[6] = add-on to phenobarbital or primidone
[7] = grand mal seizures, add-on to phenobarbital or primidone
[8] = grand mal seizures, on phenobarbital or primidone before add-on
[9] = median, on phenobarbital/primidone before add-on
[10] = 44 newly diagnosed dogs, phenobarbital 4 to 13 mg/kg p.o. daily
[11] = eight chronic epilepsy dogs (potassium bromide add-on group), phenobarbital 6 to 17 mg/kg p.o. daily
[12] = eleven chronic epilepsy dogs (later AWD add-on), phenobarbital 6 to 23 mg/kg p.o. daily

**Q.** What does the source list for `[Br-].[K+]` [Potassium bromide, potassium bromide, reference compound]?
**A.** bromide concentration, therapeutic range ([1]; established by PODELL and FENNER 1993): 1.0 to 2.0 mg/mL; Bromide concentration, mean [2, 5]: 1.0 mg/mL; Bromide concentration, median [2, 5]: 0.9 mg/mL; comparison of antiepileptic efficacy between the two add on treatment schedules ([3]; Fisher's exact test): did not indicate any significant difference; dogs in which clusters did not occur anymore ([3]; add-on): 6; dogs with worsening of seizure severity reported by owner ([3]; add-on): one; number of dogs with decreased duration of the ictus ([3]; add-on): 3; number of dogs with shortened postictal phase ([3]; add-on): two; postictal phase during treatment, mean ([3]; add-on): 5.5 h; dogs in which a seizure reduction was observed [3, 6]: 7 of 12; dogs that died or were euthanized in status epilepticus [3, 6]: 6; Number of seizure-free dogs ([3]; add-on to phenobarbital/primidone): 0/12; shortening of the postictal phase ([3]; add-on, in the dogs with shortening): 50% and 75%; duration of the ictus during treatment, median [3, 7]: 2.0 min; duration of the ictus during treatment, time range [3, 7]: 1 to 10 min; duration of the ictus before treatment, median [3, 8]: 3.0 min; duration of the ictus before treatment, time range [3, 8]: 1 to 13 min; % reduction of seizures in responders ([3]; mean ± SEM, add-on to phenobarbital/primidone): 59.7 ± 5.9%; Seizure frequency during treatment, all dogs ([3]; median, add-on to phenobarbital/primidone): 1.9 seizures/month; Seizure frequency during treatment, without nonresponders ([3]; median, add-on to phenobarbital/primidone, asterisk = P<0.05): 0.8* seizures/month; Seizure frequency before treatment, all dogs [3, 9]: 3.0 seizures/month; Seizure frequency before treatment, without nonresponders [3, 9]: 3.0 seizures/month

**Q.** What does the source list for `CCC1(c2ccccc2)C(=O)NC(=O)NC1=O` [Phenobarbital, phenobarbital]?
**A.** duration of the ictus before treatment, median [4]: 4.0 min; duration of the ictus before treatment, time range [4]: 0.5 to 10 min; duration of the ictus during treatment, median ([4]; monotherapy): 5.0 min; duration of the ictus during treatment, time range ([4]; monotherapy): 0.5 to 10 min; % reduction of seizures in responders ([4]; monotherapy): 72.4 ± 4.6%; Seizure frequency before treatment, all dogs [4]: 1.6 seizures/month; Seizure frequency before treatment, without nonresponders [4]: 1.68 seizures/month; Seizure frequency during treatment, all dogs ([4]; monotherapy): 0.59* seizures/month; Seizure frequency during treatment, without nonresponders ([4]; monotherapy): 0.42* seizures/month; dogs that died or were euthanized in status epilepticus ([4]; monotherapy): 10; dogs with focal seizures instead of grand mal seizures during treatment ([4]; monotherapy): 6; number of dogs with decreased duration of the ictus ([4]; monotherapy): 4; number of dogs with shortened postictal phase ([4]; monotherapy): 8; owners reporting subjectively a decrease of seizure severity ([4]; monotherapy): 24; postictal phase during treatment, mean ([4]; monotherapy): 3 h; shortening of the postictal phase, mean ([4]; monotherapy): 43%; dogs with unchanged or increased seizure severity ([4]; monotherapy): 11; phenobarbital serum concentration, reference values ([1]; established by FARNBACH 1984): 45 µg/mL; serum concentration of phenobarbital, mean [2, 10]: 18400 ng/mL; serum concentration of phenobarbital, median [2, 10]: 17200 ng/mL; serum concentration, mean [2, 11]: 27200 ng/mL; serum concentration, median [2, 11]: 24600 ng/mL; serum concentration of phenobarbital, mean [2, 12]: 32000 ng/mL; serum concentration of phenobarbital, median [2, 12]: 26500 ng/mL

**Q.** With `CCC1(c2ccccc2)C(=O)NCNC1=O` [Primidone, primidone] as the molecule, how does the “comparison of antiepileptic efficacy between monotherapy treatment groups” value ([4]; ANOVA) read?
**A.** Its value is “did not indicate any significant differences”.

**Q.** And the “duration of the ictus before treatment, median” value [4]?
**A.** Its value is 1.5 min.

**Q.** What about the “duration of the ictus before treatment, time range” value [4] of the same molecule?
**A.** The value was 0.5 to 10 min.

**Q.** And the “duration of the ictus during treatment, median” value ([4]; monotherapy)?
**A.** Its value is 1.0 min.

**Q.** What about the “duration of the ictus during treatment, time range” value ([4]; monotherapy) of the same molecule?
**A.** The value was 0.5 to 10 min.

**Q.** What about the “% reduction of seizures in responders” value ([4]; monotherapy) of the same molecule?
**A.** Its value is 75.1 ± 5.1%.

**Q.** What about the “Seizure frequency before treatment, all dogs” value [4] of the same molecule?
**A.** Its value is 1.75 seizures/month.

**Q.** What about the “Seizure frequency before treatment, without nonresponders” value [4] of the same molecule?
**A.** Its value is 2.0 seizures/month.

**Q.** What about the “Seizure frequency during treatment, all dogs” value ([4]; monotherapy) of the same molecule?
**A.** The value was 0.39 seizures/month.

**Q.** What about the “Seizure frequency during treatment, without nonresponders” value ([4]; monotherapy) of the same molecule?
**A.** Its value is 0.29* seizures/month.

**Q.** And the “dogs in which a seizure reduction was observed” value ([4]; monotherapy)?
**A.** Its value is 19 of 26.

**Q.** What about the “dogs that died or were euthanized in status epilepticus” value ([4]; monotherapy) of the same molecule?
**A.** The value was 10.

**Q.** And the “dogs with focal seizures instead of grand mal seizures during treatment” value ([4]; monotherapy)?
**A.** Its value is 2.

**Q.** What about the “dogs with reduced seizure number per cluster” value ([4]; monotherapy) of the same molecule?
**A.** Its value is 5 out of ten.

**Q.** And the “number of dogs with decreased duration of the ictus” value ([4]; monotherapy)?
**A.** Its value is 2.

**Q.** What about the “number of dogs with shortened postictal phase” value ([4]; monotherapy) of the same molecule?
**A.** The value was 5.

**Q.** What about the “owners reporting subjectively a decrease of seizure severity” value ([4]; monotherapy) of the same molecule?
**A.** The value was “ten of 22”.

**Q.** What about the “postictal phase during treatment, mean” value ([4]; monotherapy) of the same molecule?
**A.** Its value is 4.5 h.

**Q.** What about the “reduction of seizure number per cluster, mean” value ([4]; monotherapy) of the same molecule?
**A.** The value was 37.5%.

**Q.** And the “decrease of the duration of the ictus” value ([4]; monotherapy, in the dogs with a decrease)?
**A.** The value was 30%.

**Q.** And the “shortening of the postictal phase, mean” value ([4]; monotherapy)?
**A.** Its value is 40%.

**Q.** What about the “dogs with unchanged or increased seizure severity” value ([4]; monotherapy) of the same molecule?
**A.** Its value is 2.
